Reference: US20080318933A1, “5-Sulfonyl-1-Piperidinyl Substituted Indole Derivatives as 5-Ht6 Receptor Antagonists for the Treatment of Cns Disorders” (Glaxo Group Limited, priority 2004, published 2008)
Structures can show the parent of a compound that is named as a salt.

Target: T1, human cloned 5-HT6 receptors (Homo sapiens, UniProt P50406)
T1 construct: expressed in transfected cells; host or cells: HeLa cells expressing cloned human 5-HT6 receptor (membranes)
Experiment: Cyclase assay (cAMP production in membranes of HeLa 5HT6 cells, 5-HT stimulated)
Format: biochemical
Details: 5-HT at 4xEC50, functional Ki by Cheng-Prusoff, read-out: pKi values (converted)
Experimental: 0.5 μl of test compound in 100% dimethylsulfoxide (DMSO) was added to a white, solid 384 well assay plate (for dose response measurements the top of the concentration range is 7.5 μM final). 10 μl of washed membranes of HeLa 5HT6 cells (for preparation see WO 98/27081) in basic buffer (50 mM HEPES pH 7.4 (KOH), 10 mM MgCl2, 100 mM NaCl, 10 μM 3-isobutyl-1-methylxanthine (IBMX) (Sigma-Aldrich)) was added to all wells followed by 10 μl 2×ATP buffer (i.e. basic buffer containing 3 mM ATP) with 5-HT (at a concentration equivalent to a dose response of 4×EC50). The resultant mixture was then incubated at room temperature for 30-45 minutes to allow cAMP production. cAMP production was then measured using the DiscoveRX™ HitHunter™ chemiluminescence cAMP assay kit (DiscoveRx Corporation, 42501 Albrae Street, Fremont, Calif. 94538; Product Code: 90-0004L) or any other suitable cAMP measurement assay.
IC50 values were estimated from arbitrary designated unit (ADU) measurements from a Perkin Elmer Viewlux instrument using a four parameter logistic curve fit within EXCEL (Bowen, W. P. and Jerman, J. C. (1995), Nonlinear regression using spreadsheets. Trends in Pharmacol. Sci., 16, 413-417). Functional Ki values were calculated using the method of Cheng, Y. C. and Prussof, W. H. (Biochemical Pharmacol (1973) 22 3099-3108). plC50 and fpKi are the negative log 10 of the molar IC50 and functional Ki respectively.

T1 sequence (P50406 whole entry): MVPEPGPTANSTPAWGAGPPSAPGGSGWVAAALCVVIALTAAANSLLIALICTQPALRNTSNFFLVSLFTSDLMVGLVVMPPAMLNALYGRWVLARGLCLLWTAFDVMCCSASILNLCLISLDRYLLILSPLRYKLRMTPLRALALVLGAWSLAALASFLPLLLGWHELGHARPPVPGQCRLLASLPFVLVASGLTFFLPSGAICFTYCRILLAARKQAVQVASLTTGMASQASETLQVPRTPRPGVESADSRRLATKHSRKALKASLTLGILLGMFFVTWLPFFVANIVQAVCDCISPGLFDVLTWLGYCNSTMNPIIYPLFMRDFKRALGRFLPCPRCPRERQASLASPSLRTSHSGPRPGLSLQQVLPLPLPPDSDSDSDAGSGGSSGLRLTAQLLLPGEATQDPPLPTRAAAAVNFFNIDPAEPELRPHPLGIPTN

| Structure (SMILES) | Ki [µM] |
| --- | --- |
| O=S(=O)(c1ccccc1)c1ccc2c(ccn2C2CCNCC2)c1 [Example E1, 5-(Phenylsulfonyl)-1-(4-piperidinyl)-1H-indole hydrochloride] | ≤ 0.01 |
| CN1CCC(n2ccc3cc(S(=O)(=O)c4ccccc4)ccc32)CC1 [Example E2, 1-(1-Methyl-4-piperidinyl)-5-(phenylsulfonyl)-1H-indole hydrochloride] | ≤ 0.01 |
| O=S(=O)(c1ccccc1)c1ccc2c(c1)CCN2C1CCNCC1 [Example E3a, 5-(Phenylsulfonyl)-1-(4-piperidinyl)-2,3-dihydro-1H-indole hydrochloride] | ≤ 0.01 |
| CN1CCC(N2CCc3cc(S(=O)(=O)c4ccccc4)ccc32)CC1 [Example E4, 1-(1-Methyl-4-piperidinyl)-5-(phenylsulfonyl)-2,3-dihydro-1H-indole hydrochloride] | ≤ 0.01 |
| CN1CCC(N2CC(C)(C)c3cc(S(=O)(=O)c4ccccc4)ccc32)CC1 [Example E5, 3,3-Dimethyl-1-(1-methyl-4-piperidinyl)-5-(phenylsulfonyl)-2,3-dihydro-1H-indole hydrochloride] | < 0.316 |
| O=S(=O)(c1ccccc1)c1ccc2c(c1)CCN2C1CCN2CCCC2C1 (centres unmarked) [Example E6, 1-(Octahydro-7-indolizinyl)-5-(phenylsulfonyl)-2,3-dihydro-1H-indole hydrochloride] | ≤ 0.01 |
| CC1(N2CCc3cc(S(=O)(=O)c4ccccc4)ccc32)CCNCC1 [Example E7, 1-(4-Methyl-4-piperidinyl)-5-(phenylsulfonyl)-2,3-dihydro-1H-indole hydrochloride] | < 0.316 |
| O=S(=O)(c1cccc(F)c1)c1ccc2c(c1)CCN2C1CCNCC1 [Example E8, 5-[(3-Fluorophenyl)sulfonyl]-1-(4-piperidinyl)-2,3-dihydro-1H-indole hydrochloride] | ≤ 0.01 |
| O=S(=O)(c1ccc2c(c1)CCN2C1CCNCC1)c1ccccc1F [Example E9, 5-[(2-Fluorophenyl)sulfonyl]-1-(4-piperidinyl)-2,3-dihydro-1H-indole hydrochloride] | ≤ 0.01 |
| O=S(=O)(c1cc(F)cc(F)c1)c1ccc2c(c1)CCN2C1CCNCC1 [Example E10, 5-[(3,5-Difluorophenyl)sulfonyl]-1-(4-piperidinyl)-2,3-dihydro-1H-indole hydrochloride] | ≤ 0.01 |
| Cc1ccc(S(=O)(=O)c2ccc3c(c2)CCN3C2CCNCC2)cc1 [Example E11, 5-[(4-methylphenyl)sulfonyl]-1-(4-piperidinyl)-2,3-dihydro-1H-indole] | ≤ 0.01 |
| O=S(=O)(c1ccc2c(c1)CCN2C1CCNCC1)c1ccccc1Cl [Example E12, 5-[(2-Chlorophenyl)sulfonyl]-1-(4-piperidinyl)-2,3-dihydro-1H-indole hydrochloride] | ≤ 0.01 |
| O=S(=O)(c1ccc(Cl)cc1)c1ccc2c(c1)CCN2C1CCNCC1 [Example E13, 5-[(4-Chlorophenyl)sulfonyl]-1-(4-piperidinyl)-2,3-dihydro-1H-indole hydrochloride] | ≤ 0.01 |
| O=S(=O)(c1ccc2c(ccn2C2CCNCC2)c1)c1ccccc1F [Example E14, 5-[(2-fluorophenyl)sulfonyl]-1-(4-piperidinyl)-1H-indole hydrochloride] | ≤ 0.01 |
| O=S(=O)(c1ccc(F)cc1)c1ccc2c(c1)CCN2C1CCNCC1 [Example E15a, 5-[(4-Fluorophenyl)sulfonyl]-1-(4-piperidinyl)-2,3-dihydro-1H-indole hydrochloride] | ≤ 0.01 |
| O=S(=O)(c1ccccc1)c1ccc2c(c1)CCN2C1CCCNCC1 (centres unmarked) [Example E16a, 1-(Hexahydro-1H-azepin-4-yl)-5-(phenylsulfonyl)-2,3-dihydro-1H-indole] | ≤ 0.01 |
| O=S(=O)(c1ccccc1)c1ccc2c(c1)CCN2C1CCNC1 (centres unmarked) [Example E17a, 5-(Phenylsulfonyl)-1-(3-pyrrolidinyl)-2,3-dihydro-1H-indole] | ≤ 0.01 |
| O=S(=O)(c1ccccc1)c1cc(F)c2c(c1)CCN2C1CCNCC1 [Example E18a, 7-Fluoro-5-(phenylsulfonyl)-1-(4-piperidinyl)-2,3-dihydro-1H-indole hydrochloride] | ≤ 0.01 |
| O=S(=O)(c1ccccc1)c1cc(Cl)c2c(c1)CCN2C1CCNCC1 [Example E19a, 7-Chloro-5-(phenylsulfonyl)-1-(4-piperidinyl)-2,3-dihydro-1H-indole hydrochloride] | ≤ 0.01 |

| Structure (SMILES) | Ki [µM] |
| --- | --- |
| N#Cc1ccccc1S(=O)(=O)c1ccc2c(c1)CCN2C1CCNCC1 [Example E20, 2-{[1-(4-Piperidinyl)-2,3-dihydro-1H-indol-5-yl]sulfonyl}-benzonitrile hydrochloride] | ≤ 0.01 |
| N#Cc1cccc(S(=O)(=O)c2ccc3c(c2)CCN3C2CCNCC2)c1 [Example E21, 3-{[1-(4-Piperidinyl)-2,3-dihydro-1H-indol-5-yl]sulfonyl}benzonitrile hydrochloride] | ≤ 0.01 |
| O=S(=O)(c1cccc(F)c1)c1ccc2c(ccn2C2CCNCC2)c1 [Example E22, 5-[(3-Fluorophenyl)sulfonyl]-1-(4-piperidinyl)-1H-indole hydrochloride] | ≤ 0.01 |
| COc1cccc(S(=O)(=O)c2ccc3c(c2)CCN3C2CCNCC2)c1 [Example E23, 5-{[3-(Methyloxy)phenyl]sulfonyl}-1-(4-piperidinyl)-2,3-dihydro-1H-indole hydrochloride] | ≤ 0.01 |
| O=S(=O)(c1cccc(Cl)c1)c1ccc2c(c1)CCN2C1CCNCC1 [Example E24, 5-[(3-Chlorophenyl)sulfonyl]-1-(4-piperidinyl)-2,3-dihydro-1H-indole hydrochloride] | ≤ 0.01 |
| O=S(=O)(c1ccc(F)c(F)c1)c1ccc2c(c1)CCN2C1CCNCC1 [Example E25, 5-[(3,4-Difluorophenyl)sulfonyl]-1-(4-piperidinyl)-2,3-dihydro-1H-indole hydrochloride] | ≤ 0.01 |
| Cc1cccc(S(=O)(=O)c2ccc3c(c2)CCN3C2CCNCC2)c1 [Example E26, 5-[(3-Methylphenyl)sulfonyl]-1-(4-piperidinyl)-2,3-dihydro-1H-indole hydrochloride] | ≤ 0.01 |
| O=S(=O)(c1ccc2c(c1)CCN2C1CCNCC1)c1cc(F)ccc1F [Example E27, 5-[(2,5-Difluorophenyl)sulfonyl]-1-(4-piperidinyl)-2,3-dihydro-1H-indole hydrochloride] | ≤ 0.01 |
| Cc1nc(C)c(S(=O)(=O)c2ccc3c(c2)CCN3C2CCNCC2)s1 [Example E28, 5-[(2,4-Dimethyl-1,3-thiazol-5-yl)sulfonyl]-1-(4-piperidinyl)-2,3-dihydro-1H-indole hydrochloride] | ≤ 0.01 |
| Cc1nn(C)c(C)c1S(=O)(=O)c1ccc2c(c1)CCN2C1CCNCC1 [Example E29, 1-(4-Piperidinyl)-5-[(1,3,5-trimethyl-1H-pyrazol-4-yl)sulfonyl]-2,3-dihydro-1H-indole hydrochloride] | < 0.316 |
| CN1CCC(N2CCc3cc(S(=O)(=O)c4ccccc4)ccc32)C1 (centres unmarked) [Example E30, 1-(1-Methyl-3-pyrrolidinyl)-5-(phenylsulfonyl)-2,3-dihydro-1H-indole hydrochloride] | ≤ 0.01 |
| CN1CCCC(N2CCc3cc(S(=O)(=O)c4ccccc4)ccc32)CC1 (centres unmarked) [Example E31, 1-(1-Methylhexahydro-1H-azepin-4-yl)-5-(phenylsulfonyl)-2,3-dihydro-1H-indole hydrochloride] | ≤ 0.01 |
| CN1CCC(N2CCc3cc(S(=O)(=O)c4ccccc4)cc(Cl)c32)CC1 [Example E32, 7-Chloro-1-(1-methyl-4-piperidinyl)-5-(phenylsulfonyl)-2,3-dihydro-1H-indole hydrochloride] | ≤ 0.01 |
| CCN1CCC(n2ccc3cc(S(=O)(=O)c4cccc(F)c4)ccc32)CC1 [Example E33, 1-(1-Ethyl-4-piperidinyl)-5-[(3-fluorophenyl)sulfonyl]-1H-indole hydrochloride] | ≤ 0.01 |
| CCCN1CCC(N2CCc3cc(S(=O)(=O)c4cc(F)cc(F)c4)ccc32)CC1 [Example E34, 5-[(3,5-Difluorophenyl)sulfonyl]-1-(1-propyl-4-piperidinyl)-2,3-dihydro-1H-indole hydrochloride] | ≤ 0.01 |
| CCN1CCC(n2ccc3cc(S(=O)(=O)c4cc(F)cc(F)c4)ccc32)CC1 [Example E35, 1-(1-Ethyl-4-piperidinyl)-5-[(3,5-difluorophenyl)sulfonyl]-1H-indole hydrochloride] | ≤ 0.01 |
| CC(C)N1CCC(N2CCc3cc(S(=O)(=O)c4ccccc4)ccc32)CC1 [Example E36, 1-[1-(1-Methylethyl)-4-piperidinyl]-5-(phenylsulfonyl)-2,3-dihydro-1H-indole] | ≤ 0.01 |
| CC(C)CN1CCC(N2CCc3cc(S(=O)(=O)c4ccccc4)ccc32)CC1 [Example E37, 1-[1-(2-Methylpropyl)-4-piperidinyl]-5-(phenylsulfonyl)-2,3-dihydro-1H-indole hydrochloride] | ≤ 0.01 |
| CC(C)(C)CN1CCC(N2CCc3cc(S(=O)(=O)c4ccccc4)ccc32)CC1 [Example E38, 1-[1-(2,2-dimethylpropyl)-4-piperidinyl]-5-(phenylsulfonyl)-2,3-dihydro 1H-indole] | < 0.316 |
